According to US20140039044A1, “Hydroxylated Polymethoxyflavone Compositions” (WLLGEN, INC., priority 2006, published 2014):

Columns and labels:
[1] = tested on: AGS cells; assay: Apoptotic ratio by propidium iodide flow cytometry (AC50); format: cell-based, human; conditions: Homo sapiens; AGS cells; read-out: Apoptosis-inducing AC50
Outline: (§1)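 AC50 denotes the concentration that induces 50% apoptosis. It was derived from propidium iodide–DNA fluorescence measured by flow cytometry after ethanol fixation and RNase treatment. Cells were seeded at 2×10^5, grown 24 h, then exposed to test compounds for 24 h.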

[2] = tested on: COLO205 cells; assay: as above; format: cell-based, human; conditions: Homo sapiens, COLO 205; COLO205 cells; read-out: Apoptosis-inducing AC50
Outline: as §1

[3] = tested on: HL-60 cells; assay: as above; format: cell-based, human; conditions: Homo sapiens; HL-60 cells; read-out: Apoptosis-inducing AC50
Outline: as §1

[4] = tested on: HT-29 cells; assay: as above; format: cell-based, human; conditions: Homo sapiens, read-out: Apoptosis-inducing AC50
Outline: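 HT-29 cells (2×10^5) were treated with compound for 24 h, then fixed in ice-cold ethanol overnight and treated with Triton X-100/RNase at 37 °C for 30 min. They were stained with propidium iodide (50 μg/mL solution) on ice for 30 min. The apoptotic fraction was measured from PI-DNA fluorescence by flow cytometry, and AC50 was reported.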

[5] = tested on: HL-60 cells; assay: Cell cycle distribution by flow cytometry; format: cell-based, human; conditions: for Cell Cycle Distribution G0/G1 / Cell Cycle Distribution G2/M / Cell Cycle Distribution S: 24 h, Table 10
Outline: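 HL-60 cells were treated for 24 h with compound at 5, 10, 25, 50 or 100 μM, or with DMSO. Cells were then ethanol-fixed, treated with Triton X-100/RNase and stained with propidium iodide. DNA content was measured by flow cytometry to give cell-cycle phase distribution.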

[6] = tested on: HT-29 cells; assay: Cell cycle distribution by flow cytometry; format: cell-based, human; conditions: for Cell Cycle Distribution G0/G1 / Cell Cycle Distribution G2/M / Cell Cycle Distribution S: 24 h
Outline: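 Cells were treated 24 h with compound at 5, 10, 25, 50 or 100 μM, or with DMSO. They were then ethanol-fixed, RNase-treated and stained with propidium iodide. DNA content was measured by FACScan flow cytometry to give cell-cycle phase distribution.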

[7] = tested on: LPS-induced nitrite production in RAW 264.7 macrophages; assay: Nitrite assay (Griess reaction); format: cell-based, mouse; conditions: 100 ng/ml LPS, PMF 30 μM, 24 h, FIG. 3
Method: Compounds or compositions were tested for anti-inflammatory effects by monitoring nitrite production in LPS-activated RAW264.7 cells. After treating the cells with LPS or LPS and test substance, supernatants were harvested and the amount of nitrite, an indicator of NO synthesis, was measured by use of the Griess reaction. Briefly, supernatants (100 μl) were mixed with the same volume of Griess reagent (1% sulphanilamide in 5% phosphoric acid and 0.1% naphthylethylenediamine dihydrochloride in water) in duplicate on 96-well plates. After incubation at room temperature for 10 min, absorbance at 570 nm was measured with a ELISA reader (Thermo Labsystems Multiskan Ascent, Finland).
The anti-inflammatory effects of compounds A-K were tested by measuring nitrite production in LPS-activated RAW 264.7 macrophages, as described in Section 8.4 above. Macrophages were treated with 100 ng/ml LPS alone or LPS and PMF (10 or 30 μM) for 24 h. At the end of incubation time, 100 μl of the culture medium was collected for the nitrite assay.

COc1cc(-c2cc(=O)c3c(OC)c(OC)c(OC)c(OC)c3o2)ccc1O [Compound G, 4′-hydroxy-5,6,7,8,3′-pentamethoxyflavone]
AC50 [1]: > 100 µM
AC50 [2]: > 100 µM
AC50 [3]: 87.1 ± 7.83 µM
AC50 [4]: > 100 µM
Cell Cycle Distribution G0/G1 ([5]; 5 μM): 41.79 ± 0.80
Cell Cycle Distribution G2/M ([5]; 5 μM): 4.80 ± 6.73
Cell Cycle Distribution S ([5]; 5 μM): 53.41 ± 5.93
Cell Cycle Distribution G0/G1 ([5]; 10 μM): 43.26 ± 2.02
Cell Cycle Distribution G2/M ([5]; 10 μM): 12.61 ± 0.11
Cell Cycle Distribution S ([5]; 10 μM): 44.15 ± 2.12
Cell Cycle Distribution G0/G1 ([5]; 25 μM): 55.71 ± 0.15
Cell Cycle Distribution G2/M ([5]; 25 μM): 8.39 ± 0.16
Cell Cycle Distribution S ([5]; 25 μM): 35.90 ± 0.01
Cell Cycle Distribution G0/G1 ([5]; 50 μM): 52.35 ± 1.09
Cell Cycle Distribution G2/M ([5]; 50 μM): 12.18 ± 3.83
Cell Cycle Distribution S ([5]; 50 μM): 35.48 ± 4.91
Cell Cycle Distribution G0/G1 ([5]; 100 μM): 65.44 ± 5.42
Cell Cycle Distribution G2/M ([5]; 100 μM): 11.21 ± 8.27
Cell Cycle Distribution S ([5]; 100 μM): 23.35 ± 13.67
Cell Cycle Distribution G0/G1 ([6]; 5 μM): 56.92 ± 1.98
Cell Cycle Distribution G2/M ([6]; 5 μM): 12.42 ± 0.44
Cell Cycle Distribution S ([6]; 5 μM): 30.66 ± 2.43
Cell Cycle Distribution G0/G1 ([6]; 10 μM): 58.01 ± 1.22
Cell Cycle Distribution G2/M ([6]; 10 μM): 9.97 ± 2.10
Cell Cycle Distribution S ([6]; 10 μM): 32.03 ± 0.88
Cell Cycle Distribution G0/G1 ([6]; 25 μM): 74.38 ± 1.68
Cell Cycle Distribution G2/M ([6]; 25 μM): 6.18 ± 0.06
Cell Cycle Distribution S ([6]; 25 μM): 19.55 ± 1.59
Cell Cycle Distribution G0/G1 ([6]; 50 μM): 84.63 ± 1.16
Cell Cycle Distribution G2/M ([6]; 50 μM): 7.99 ± 0.01
Cell Cycle Distribution S ([6]; 50 μM): 7.39 ± 1.16
Cell Cycle Distribution G0/G1 ([6]; 100 μM): 75.28 ± 1.61
Cell Cycle Distribution G2/M ([6]; 100 μM): 14.63 ± 0.21
Cell Cycle Distribution S ([6]; 100 μM): 10.11 ± 1.82
Cell cycle arrest, in words ([6]; 5-100 μM, 24 h exposure): significant accumulation of cells in G1 phase
Rank of inhibitory potency on LPS-induced nitrite production [7]: H>G>K>C>I>B

COc1ccc(-c2cc(=O)c3c(O)c(OC)c(OC)c(OC)c3o2)cc1O [Compound K, 5,3′-dihydroxy-6,7,8,4′-tetramethoxyflavone]
AC50 [1]: 70 ± 1.4 µM
AC50 [2]: > 100 µM
AC50 [3]: > 100 µM
AC50 [4]: > 100 µM
G2/M cell cycle arrest, in words [5]: strongly potentiated the G2/M cell cycle arrest
Cell Cycle Distribution G0/G1 ([5]; 5 μM): 0.56 ± 0.76
Cell Cycle Distribution G2/M ([5]; 5 μM): 35.91 ± 0.11
Cell Cycle Distribution S ([5]; 5 μM): 60.54 ± 4.90
Cell Cycle Distribution G0/G1 ([5]; 10 μM): 0.38 ± 0.06
Cell Cycle Distribution G2/M ([5]; 10 μM): 54.41 ± 4.77
Cell Cycle Distribution S ([5]; 10 μM): 45.22 ± 4.83
Cell Cycle Distribution G0/G1 ([5]; 25 μM): 0.68 ± 0.42
Cell Cycle Distribution G2/M ([5]; 25 μM): 49.12 ± 2.64
Cell Cycle Distribution S ([5]; 25 μM): 50.23 ± 3.08
Cell Cycle Distribution G0/G1 ([5]; 50 μM): 2.63 ± 2.50
Cell Cycle Distribution G2/M ([5]; 50 μM): 45.05 ± 0.01
Cell Cycle Distribution S ([5]; 50 μM): 52.33 ± 2.51
Cell Cycle Distribution G0/G1 ([5]; 100 μM): 3.18 ± 2.62
Cell Cycle Distribution G2/M ([5]; 100 μM): 30.61 ± 4.64
Cell Cycle Distribution S ([5]; 100 μM): 66.21 ± 1.72
G2/M cell cycle arrest, in words [6]: strongly potentiated the G2/M cell cycle arrest
Cell Cycle Distribution G0/G1 ([6]; 5 μM): 60.57 ± 0.04
Cell Cycle Distribution G2/M ([6]; 5 μM): 9.87 ± 0.78
Cell Cycle Distribution S ([6]; 5 μM): 29.71 ± 0.94
Cell Cycle Distribution G0/G1 ([6]; 10 μM): 57.94 ± 0.50
Cell Cycle Distribution G2/M ([6]; 10 μM): 11.52 ± 0.27
Cell Cycle Distribution S ([6]; 10 μM): 30.55 ± 0.77
Cell Cycle Distribution G0/G1 ([6]; 25 μM): 50.58 ± 1.35
Cell Cycle Distribution G2/M ([6]; 25 μM): 12.49 ± 0.09
Cell Cycle Distribution S ([6]; 25 μM): 36.94 ± 1.45
Cell Cycle Distribution G0/G1 ([6]; 50 μM): 64.13 ± 0.83
Cell Cycle Distribution G2/M ([6]; 50 μM): 13.14 ± 0.47
Cell Cycle Distribution S ([6]; 50 μM): 22.73 ± 0.37
Cell Cycle Distribution G0/G1 ([6]; 100 μM): 47.16 ± 2.59
Cell Cycle Distribution G2/M ([6]; 100 μM): 36.12 ± 4.37
Cell Cycle Distribution S ([6]; 100 μM): 16.72 ± 1.73
Rank of inhibitory potency on LPS-induced nitrite production [7]: H>G>K>C>I>B
